Assay results from patent US10787436B2, “Inhibitors of cyclin-dependent kinase 7 (CDK7)” (Dana-Farber Cancer Institute, Inc., priority 2012, dated 2020).

Experiments:
CDK7 = CDK7 (Homo sapiens (Human), UniProt P50613); test: Compound I-49 pull down from Loucy cellular lysates; format: binding; conditions: 1 μM, 4° C., 12 hours
Description: Precipitated proteins were washed and probed for CDK7.
(§1) Following the treatment, the cells were washed 2-fold with cold PBS and then lysed in the following lysis buffer: 50 mM TrisHCl pH 8.0, 150 mM NaCl, 1% NP-40, 5 mM EDTA, 1 mM DTT, and protease/phosphatase cocktails. Following clearance, the lysates were treated with compound I-49 for pulldown (or CDK7 antibody for IP) overnight at 4° C. The lysates were then incubated with streptavidin agarose for pulldown (or Protein G Agarose for IP) for an additional 2-3 hours at 4° C. Agarose beads were washed 5 times with a lysis buffer and then boiled in 2X SDS for 10 minutes at 95° C.

cyclin K = test: as above; format: binding
Description: (§2) However, cyclin K, which is known to bind to CDK12/13, did interact with I-49. […] Lysates were then probed with I-49. Precipitated proteins were washed and probed with antibodies as shown.
as §1

[1] = tested on: CDK1, CDK2, CDK4, and CDK6; test: as above; format: binding
Description: as §2, §1

CDK5/p25 = CDK5/p25 (Homo sapiens (Human), UniProt Q00535); test: Life Technologies Z'-Lyte kinase assay, CDK5/p25; format: biochemical; conditions: read-out: Calculated IC50, CDK5/p25
Chain of CDK5/p25 (Q00535 whole entry): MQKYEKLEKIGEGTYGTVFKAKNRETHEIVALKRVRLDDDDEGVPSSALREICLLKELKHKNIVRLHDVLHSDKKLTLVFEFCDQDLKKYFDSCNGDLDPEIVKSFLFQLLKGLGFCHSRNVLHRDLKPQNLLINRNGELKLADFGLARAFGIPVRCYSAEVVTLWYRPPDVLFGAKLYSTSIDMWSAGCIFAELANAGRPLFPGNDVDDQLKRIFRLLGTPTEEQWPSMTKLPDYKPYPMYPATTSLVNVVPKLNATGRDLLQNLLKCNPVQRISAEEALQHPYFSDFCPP
Chain of CDK5/p25 (Q15078 99-307 partner): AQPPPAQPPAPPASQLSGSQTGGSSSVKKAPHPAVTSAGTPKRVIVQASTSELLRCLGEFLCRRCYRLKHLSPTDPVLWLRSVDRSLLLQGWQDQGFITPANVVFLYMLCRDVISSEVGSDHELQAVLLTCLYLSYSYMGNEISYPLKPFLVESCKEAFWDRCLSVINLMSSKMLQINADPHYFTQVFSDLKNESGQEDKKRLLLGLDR

MLK3 = MLK3 (Homo sapiens (Human), UniProt Q16584); test: Life Technologies LanthaScreen Eu kinase assay, MLK3; format: binding; conditions: read-out: Calculated IC50, MLK3
Chain of MLK3 (Q16584 whole entry): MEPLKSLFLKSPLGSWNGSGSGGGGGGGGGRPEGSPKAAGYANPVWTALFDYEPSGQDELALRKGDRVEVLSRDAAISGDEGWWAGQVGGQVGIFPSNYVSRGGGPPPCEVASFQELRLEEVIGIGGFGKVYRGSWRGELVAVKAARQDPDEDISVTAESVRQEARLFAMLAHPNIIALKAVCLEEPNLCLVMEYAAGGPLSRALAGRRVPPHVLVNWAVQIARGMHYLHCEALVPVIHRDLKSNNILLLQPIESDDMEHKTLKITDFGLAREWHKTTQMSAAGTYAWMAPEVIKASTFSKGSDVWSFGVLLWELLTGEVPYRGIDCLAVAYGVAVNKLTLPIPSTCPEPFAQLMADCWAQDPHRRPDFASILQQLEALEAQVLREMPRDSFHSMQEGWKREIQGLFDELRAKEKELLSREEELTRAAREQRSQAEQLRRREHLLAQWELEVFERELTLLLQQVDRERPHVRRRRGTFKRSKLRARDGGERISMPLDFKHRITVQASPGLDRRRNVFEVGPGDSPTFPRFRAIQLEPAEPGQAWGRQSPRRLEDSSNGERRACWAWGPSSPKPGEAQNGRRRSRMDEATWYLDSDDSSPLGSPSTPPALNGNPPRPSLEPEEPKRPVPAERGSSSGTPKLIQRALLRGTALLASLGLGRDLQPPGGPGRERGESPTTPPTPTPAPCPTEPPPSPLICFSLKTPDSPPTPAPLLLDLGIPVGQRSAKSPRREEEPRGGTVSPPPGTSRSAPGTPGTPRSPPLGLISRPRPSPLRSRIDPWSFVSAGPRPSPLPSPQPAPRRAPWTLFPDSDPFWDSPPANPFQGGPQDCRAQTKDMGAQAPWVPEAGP

Jurkat = Jurkat (proliferation, CellTiter-Glo); format: cell-based; conditions: Homo sapiens, Jurkat; read-out: Calculated IC50, Jurkat

Chain of CDK7 (P50613 whole entry): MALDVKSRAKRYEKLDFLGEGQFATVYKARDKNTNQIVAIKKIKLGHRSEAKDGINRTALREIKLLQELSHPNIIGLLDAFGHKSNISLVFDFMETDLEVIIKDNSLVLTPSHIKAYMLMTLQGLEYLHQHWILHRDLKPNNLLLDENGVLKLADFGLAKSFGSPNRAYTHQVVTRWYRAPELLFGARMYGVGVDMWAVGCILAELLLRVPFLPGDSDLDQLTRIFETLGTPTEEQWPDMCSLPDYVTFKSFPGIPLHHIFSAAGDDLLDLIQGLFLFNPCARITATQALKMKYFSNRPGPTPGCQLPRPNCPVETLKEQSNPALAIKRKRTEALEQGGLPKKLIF

Row | IC50 (CDK5/p25) [nM] | IC50 (MLK3) [nM] | IC50 (Jurkat) [nM] | Structure (SMILES) | Pull down of CDK7 from cellular lysates (CDK7) | Interaction with cyclin K (cyclin K) | Interaction with CDK1, CDK2, CDK4, and CDK6 [1]
1 | – | – | – | CN(C/C=C/C(=O)Nc1ccc(C(=O)Nc2cccc(Nc3ncc(Cl)c(-c4c[nH]c5ccccc45)n3)c2)cc1)CCCNC(=O)NCCOCCOCCOCCNC(=O)CCCCC1SCC2NC(=O)NC21 (stereo not drawn) [Formula I-49] | pulls down CDK7 | did interact | do not interact
2 | 100 to 1000 | < 100 | < 100 | CN(C)C/C=C/C(=O)Nc1ccc(C(=O)Nc2cccc(Nc3ncc(C#N)c(-c4c[nH]c5ccccc45)n3)c2)cc1 [Formula I-53, (E)-N-(3-(5-cyano-4-(1H-indol-3-yl)pyrimidin-2-ylamino)phenyl)-4-(4-(dimethylamino)but-2-enamido)benzamide] | – | – | –
